In patent US20240252586A1, “ENGINEERED ANTIMICROBIAL PEPTIDES AND USAGE THEREOF” (priority 2021, published 2024):
Values joined by “and” are separate entries in the source; they are usually repeats but may differ in a detail not shown here. Identical values can stand only once. Like-named read-outs stand apart in the source and are kept apart here. Where no end group is shown, it is not given here.

Tests used:
S. epidermidis = assay: Broth microdilution MIC, PJI isolates (Example 1); type: cell-based, Staphylococcus epidermidis; details: RPMI
Description: (§1) Imipenem, levofloxacin, tigecycline, linezolid, vancomycin, oxacillin, ceftazidime, colistin, and amikacin were tested as comparators. Testing was conducted in accordance with guidelines from the Clinical and Laboratory Standards Institute (CLSI; M7 and M100). Test organisms comprised reference strains from the American Type Culture Collection, the Centers for Disease Control Antibiotic Reference Bank and clinical isolates from the Micromyx repository.

S. aureus = assay: Broth microdilution MIC, PJI isolates (Example 1); type: cell-based, Staphylococcus aureus; details: RPMI; N = 3
Description: as §1

Enterobacterales = assay: Broth microdilution MIC, PJI isolates (Example 1); type: cell-based; details: RPMI; N = 22
Description: as §1

A. baumannii = assay: Broth microdilution MIC, PJI isolates (Example 1); type: cell-based, Acinetobacter baumannii; details: RPMI; N = 24
Description: as §1

P. aeruginosa CDC 0515 = details: RPMI
Description: FIC test ranges were set based on broth microdilution MIC test data. FIC assay plates were prepared in accordance with CLSI guidelines for broth microdilution susceptibility testing; automated liquid handlers, and multi-channel pipettes were used to conduct serial dilutions and liquid transfers.
SEQ ID NO: 1 was tested at two concentration ranges depending on the test media. All organisms tested in CAMHB 0.002% P-80 were tested from 0.015-16 μg/mL; when tested in RPMI 0.002% P-80, the range tested was 0.004-4 μg/mL. For each SEQ ID NO: 1 mother, wells across the standard 96-well microdilution plate were filled with 150 μL of sterile saline 0.002% P-80 in columns 2 through 12. A 300 μL aliquot at 20× the highest final concentration of each dilution range to be tested, was added to each well in column 1 of the plate. The Biomek 3000 was used to make eleven 2-fold serial dilutions horizontally across each row of the plate columns 2 through 11.
The daughter plates were then completed using the Biomek FX to transfer 5 μL of drug solution from each well of the SEQ ID NO: 1 mother plates to the corresponding well in each daughter plate in a single step. […] The preparation of the daughter plates was performed for each media type; two times in total as all organisms were tested in both media types.
A standard inoculum for each organism was prepared per CLSI method. Colonies were picked up from the primary plate and a suspension was prepared equal to 0.5 McFarland turbidity standard. The suspensions were additionally diluted 1:10 in the appropriate broth. A 10 μL standardized inoculum was delivered into each well using the Biomek 3000 from low to high concentration. These inoculations yielded a final cell concentration in the daughter plates of approximately 5×10^5 CFU/mL in each well. […] Exemplary checkboard panels are seen in Table 5 and Table 6. Plates were incubated at 35° C. for 16-20 hr.
The MIC of the horizontal agent (row H) and the MIC of the vertical agent (column 12) were recorded and the wells of the growth-no growth interface for wells containing agents in combination at varying ratios were recorded by row. […] Pinpoint trailing was not interpreted as growth.
For each relevant row of the panel, the FICI was calculated as:
FICdrug A/MICdrug A+FICdrug B/MICdrug=FICI
Mean FICI values were determined for each combination tested by averaging the FICI values as observed on each row of the checkerboard assay (See Table 9, e.g., if there were FICI values for B-G, those FICI values were added together and divided by the number of rows the FICI values which in this case is 6 to get the mean FICI value for that combination).
Using the criteria described by: Odds FC. 2003. Synergy, antagonism, and what the chequerboard puts between them. J Antimicrob Chemother 52(1):1, the mean FICI for the combination was interpreted as follows: ≤0.5=synergy, >0.5-4=additive/indifferent, and >4=antagonism. […] An interpretation of indifference is consistent with growth inhibition at concentrations at or slightly below/above the MICs of the individual agents alone, resulting in a FICI value of >0.5 but […].

[1] = system: Escherichia coli ATCC 25922; assay: Broth microdilution MIC, QC of stock (Study 2); type: cell-based
Description: (§2) The activity of SEQ ID NO: 1 stocks against relevant ATCC reference isolates was determined by broth microdilution for QC purposes in accordance with guidelines described by the Clinical and Laboratory Standards Institute.
(§3) The wells in columns 2-12 in a standard 96-well microdilution plate were filled with 150 μL of 0.002% P-80 PBS. […] Serial two-fold dilutions were conducted through column 11. The wells of column 12 contained no drug and served as the organism growth control well. This would become the “mother” plate from which “daughter” or test plates would be prepared. The daughter plates were loaded with 190 μL of CAMHB+0.002% polysorbate-80 (P-80), or RPMI with 0.002% P-80 by hand-pipetting.
(§4) A standardized inoculum of each evaluated organism was prepared per CLSI methods. Growth from agar plates was used to prepare a 0.5 McFarland suspension in saline for each organism. The 0.5 McFarland suspensions were diluted 1:20 in saline, and the diluted suspensions were used as the test inocula. The inocula were then transferred to daughter plates by delivering 10 μL of standardized inoculum into each well of the daughter plate, resulting in a final concentration ranging between 2.5×10^5 to 5×10^5 CFU/mL per well.
(§5) Plates were stacked and covered with a lid on the top plate, placed into plastic bags, and incubated at 35° C. for 16-20 hr in ambient air. Growth in the microplates was viewed from the bottom using a plate viewer. […] The MIC was read and recorded as the lowest concentration of drug (SEQ ID NO: 1) that inhibited visible growth of the organism.

[2] = system: Pseudomonas aeruginosa ATCC 27853; assay: Broth microdilution MIC, QC of stock (Study 2); type: cell-based
Description: as §2, §3, §4, §5

[3] = system: Staphylococcus aureus ATCC 29213; assay: Broth microdilution MIC, QC of stock (Study 2); type: cell-based
Description: as §2, §3, §4, §5

[4] = system: P. aeruginosa CDC 0515 biofilm; assay: Microtiter plate biofilm studies (previous), resazurin viability
From the text: In those previous studies, mature biofilms were formed on polystyrene microtiter plates through growth in CAMHB, followed by exposure to SEQ ID NO: 1 and resazurin addition to measure cell viability.

[5] = system: Staphylococcus aureus SH1000; details: both concentrations (1 and 5 mg/mL)
Description: A bone tunnel in the tibial canal was created using a drill with a 1.2 mm or 1.6 mm tungsten carbide drill bit. The bone tunnel was then dried and treated to stimulate acute human PJI following primary arthroplasty. A Kirschner wire implant of 2 cm long with a 0.3 cm long top hook was placed in the bone tunnel and the wound was closed. Prior to closure of the superficial skin layer, 0.1 mL of 2×10^6 planktonic Staphylococcus aureus SH1000 (CFU/rabbit) in saline was injected into the joint space. A closure was performed, and a biofilm was allowed to become established over a period of 2 days.
At 2 days post infection, irrigation and debridement (I&D) was performed on the infected joint. […] Additionally, an intravenous administration of an antibiotic was administered. Bacterial burden was determined by colony forming unit (CFU) analysis.
Animals were observed up to 28 days. […] When an animal was sick or needed to be euthanized, the implant and a part of the tibia was collected post mortem and bacterial burden was determined by CFU analysis.
The following parameters and endpoints were evaluated in this study: X-ray for proper implant placement, bacterial burden by colony forming unit analysis (CFU), general clinical signs, detailed clinical signs, body weights, body weight changes, temperature, mortality, blood culture, erythrocyte sedimentation rate (ESR), and C-reactive protein levels (CRP). […]

RRWVRRVRRVWRRVVRVVRRWVRR [SEQ ID NO: 1]
MIC50 (S. epidermidis; All S. epidermidis (N = 104)): 0.12 µg/mL | MIC90 (S. epidermidis; All S. epidermidis (N = 104)): 0.12 µg/mL | MIC50 (S. epidermidis; MRSE (N = 58)): 0.12 µg/mL | MIC90 (S. epidermidis; MRSE (N = 58)): 0.12 µg/mL | MIC50 (S. epidermidis; MSSE (N = 46)): 0.12 µg/mL | MIC90 (S. epidermidis; MSSE (N = 46)): 0.12 µg/mL | MIC50 (S. aureus): 0.12 µg/mL | MIC90 (S. aureus): 0.12 µg/mL | MIC50 (Enterobacterales): 0.5 µg/mL | MIC90 (Enterobacterales): 0.5 µg/mL | MIC50 (A. baumannii): 0.25 µg/mL | MIC90 (A. baumannii): 0.25 µg/mL | FICI (P. aeruginosa CDC 0515; checkerboard row A, with Sodium Bicarbonate at 100): 2.5 | FICI (P. aeruginosa CDC 0515; checkerboard row B, with Sodium Bicarbonate at 50): 2.25 | FICI (P. aeruginosa CDC 0515; checkerboard row C, with Sodium Bicarbonate at 25): 1.125 | MIC ([1]; CAMHB + 0.002% P-80): 2 µg/mL | MIC ([1]; RPMI + 0.002% P-80): 0.5 µg/mL | MIC ([2]; CAMHB + 0.002% P-80): 4 µg/mL | MIC ([2]; RPMI + 0.002% P-80): 0.5 µg/mL | MIC ([3]; CAMHB + 0.002% P-80): 4 µg/mL | MIC ([3]; RPMI + 0.002% P-80): 0.12 µg/mL | decrease in cell viability (resazurin reduction) ([4]; 500 μg/mL, 15 minutes): ca. 70% | MIC ([4]; two previous microtiter plate biofilm studies): 8 µg/mL and 16 µg/mL | body weight vs control group [5]: no statistically significant bodyweight differences
